Patent US8268815B2, “Pyrimidine compounds and use thereof” (Abbott GmbH & Co. KG, priority 2004, dated 2012)

Legend:
[1] = target: T1, human dopamine D2L receptors (long isoform) (Homo sapiens, UniProt P14416); test: Dopamine D2L receptor binding, displacement of [125I]-iodospiperone; details: ratio Ki(D2L)/Ki(D3); HEK-293 membranes
T1 construct: expressed in transfected cells
Experimental: (§1) The substance to be tested was dissolved either in methanol/Chremophor® (BASF-AG) or in dimethyl sulfoxide and then diluted with water to the desired concentration.
II. Dopamine D2L Receptor:
(§2) Triplicate mixtures were carried out.
The incubation buffer comprised 50 mM Tris, 120 mM NaCl, 5 mM KCl, 2 mM CaCl2, 2 mM MgCl2 and 0.1% bovine serum albumin. The buffer was adjusted to pH 7.4 with HCl.
(§3) III. Measurement and Evaluation:
(§4) After incubation at 25° C. for 60 minutes, the mixtures were filtered under vacuum through Whatman GF/B glass fiber filters using a cell harvester. The filters were transferred by a filter transfer system into scintillation vials. After addition of 4 ml of Ultima Gold® (Packard), the samples were shaken for one hour and then the radioactivity was counted in a beta counter (Packard, Tricarb 2000 or 2200CA). The cp values were converted into dpm by means of a standard quench series with the aid of the instrument's own program.
(§5) Evaluation of the inhibition plots took place by iterative nonlinear regression analysis using the Statistical Analysis System (SAS) similar to the “LIGAND” program described by Munson and Rodbard.

[2] = target: T2, human dopamine D3 receptors (Homo sapiens, UniProt P35462); test: Dopamine D3 receptor binding, displacement of [125I]-iodosulpiride; details: membranes from HEK-293 cells with stably expressed human D3 receptors, 0.1 nM [125I]-iodosulpiride
T2 construct: expressed in transfected cells
T2 sequence (P35462 whole entry): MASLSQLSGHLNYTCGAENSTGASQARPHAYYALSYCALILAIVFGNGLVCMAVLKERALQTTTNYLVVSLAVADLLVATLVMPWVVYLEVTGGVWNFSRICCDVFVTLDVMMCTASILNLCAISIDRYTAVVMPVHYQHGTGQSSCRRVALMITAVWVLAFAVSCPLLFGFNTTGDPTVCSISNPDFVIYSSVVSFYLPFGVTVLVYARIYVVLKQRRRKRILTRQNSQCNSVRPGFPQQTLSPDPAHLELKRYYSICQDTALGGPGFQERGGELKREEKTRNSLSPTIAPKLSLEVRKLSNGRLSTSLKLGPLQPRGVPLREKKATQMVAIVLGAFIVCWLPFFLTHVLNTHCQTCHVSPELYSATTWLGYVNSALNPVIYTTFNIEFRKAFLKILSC
Experimental: as §1, §2
The incubation buffer comprised 50 mM Tris, 120 mM NaCl, 5 mM KCl, 2 mM CaCl2, 2 mM MgCl2 and 0.1% bovine serum albumin, 10 μM quinolone, 0.1% ascorbic acid (prepared fresh each day). The buffer was adjusted to pH 7.4 with HCl.
as §3, §4, §5

T1 sequence (P14416 whole entry, canonical isoform): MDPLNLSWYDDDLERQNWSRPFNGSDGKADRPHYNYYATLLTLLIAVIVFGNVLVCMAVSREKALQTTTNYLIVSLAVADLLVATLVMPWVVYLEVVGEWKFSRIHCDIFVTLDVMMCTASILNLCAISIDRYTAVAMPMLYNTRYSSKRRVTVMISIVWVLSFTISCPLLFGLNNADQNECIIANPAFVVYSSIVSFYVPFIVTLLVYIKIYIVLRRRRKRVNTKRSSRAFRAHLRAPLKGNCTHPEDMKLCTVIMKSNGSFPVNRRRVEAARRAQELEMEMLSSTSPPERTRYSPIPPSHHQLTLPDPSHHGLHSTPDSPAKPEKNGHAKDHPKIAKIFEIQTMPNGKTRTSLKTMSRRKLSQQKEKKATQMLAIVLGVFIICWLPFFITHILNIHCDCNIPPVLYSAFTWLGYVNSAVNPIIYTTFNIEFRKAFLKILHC

Structure (SMILES)	Selectivity vs. D2L (Ki(D2L)/Ki(D3)) [1]	Ki [2] [nM]
CC(C)(C)c1nc(N2CCN(CCCN3C(=O)CCc4ccccc43)CC2)cc(C(F)(F)F)n1.Cl [Example 1, 1-[2-tert-Butyl-6-(trifluoromethyl)pyrimidin-4-yl]-4-[3-(2-oxo-3,4-dihydroquinolin-1(2H)-yl)propyl]piperazin-4-ium chloride]	37	3.43
CC(C)(C)c1nc(N2CCN(CCCN3C(=O)COc4ccccc43)CC2)cc(C(F)(F)F)n1 [Example 2, 4-(3-{4-[2-tert-Butyl-6-(trifluoromethyl)pyrimidin-4-yl]piperazin-1-yl}propyl)-2H-1,4-benzoxazin-3(4H)-one]	29	12.1
CC(C)(C)c1nc(N2CCN(C/C=C/CN3C(=O)CCc4ccccc43)CC2)cc(C(F)(F)F)n1 [Example 10, 1-((2E)-4-{4-[2-tert-Butyl-6-(trifluoromethyl)pyrimidin-4-yl]piperazin-1-yl}but-2-enyl)-3,4-dihydroquinolin-2(1H)-one]	–	9.2
CC(C)(C)c1nc(N2CCN(CCCCN3C(=O)CCC4=C3CCCC4=O)CC2)cc(C(F)(F)F)n1 [Example 45, 1-{4-[4-(2-tert-Butyl-6-trifluoromethyl-pyrimidin-4-yl)piperazin-1-yl]butyl}-4,6,7,8-tetrahydro-1H,3H-quinoline-2,5-dione]	41	4.68

Compounds with a lower Ki [2], results first:

Selectivity vs. D2L (Ki(D2L)/Ki(D3)) [1]	Ki [2] [nM]	Structure (SMILES)
25	2.25	CCCc1cc(N2CCN(CCCCN3C(=O)CCCc4c(OC)cccc43)CC2)nc(C(C)(C)C)n1 [Example 54, 1-{4-[4-(2-tert-Butyl-6-propyl-pyrimidin-4-yl)piperazin-1-yl]butyl}-6-methoxy-1,3,4,5-tetrahydro-benzo[b]azepin-2-one]
65	1.71	CCCc1cc(N2CCN(CCCCN3C(=O)CCc4c(OC)cccc43)CC2)nc(C(C)(C)C)n1 [Example 33, 1-{4-[4-(2-tert-Butyl-6-propylpyrimidin-4-yl)piperazin-1-yl]butyl}-5-methoxy-3,4-dihydroquinolin-2(1H)-one]
38	1.59	CCCc1cc(N2CCN(CCCCN3C(=O)CCc4ccccc43)CC2)nc(C(C)(C)C)n1 [Example 37, 1-{4-[4-(2-tert-Butyl-6-propylpyrimidin-4-yl)piperazin-1-yl]butyl}-3,4-dihydroquinolin-2(1H)-one]
29	1.54	CCCc1cc(N2CCN(CCCCN3C(=O)CCC4=C3CCCC4=O)CC2)nc(C(C)(C)C)n1 [Example 44, 1-{4-[4-(2-tert-Butyl-6-propyl-pyrimidin-4-yl)piperazin-1-yl]butyl}-4,6,7,8-tetrahydro-1H,3H-quinoline-2,5-dione]
41	1.18	CC(C)(C)c1nc(C(F)F)cc(N2CCN(CCCCN3C(=O)CCc4c(O)cccc43)CC2)n1 [Example 36, 1-(4-{4-[2-tert-Butyl-6-(difluoromethyl)pyrimidin-4-yl]piperazin-1-yl}butyl)-5-hydroxy-3,4-dihydroquinolin-2(1H)-one]
26	0.69	CCCc1cc(N2CCN(CCCCN3C(=O)CCCc4c(O)cccc43)CC2)nc(C(C)(C)C)n1 [Example 56, 4-(2-tert-butyl-6-propyl-pyrimidin-4-yl)-1-[4-(6-hydroxy-2-oxo-2,3,4,5-tetrahydro-benzo[b]azepin-1-yl)butyl]piperazine]
